Laboratory results as given in the NIST ThermoML archive (doi:10.1016/j.tca.2009.06.015).
Where “and” joins values, the source holds several entries; their conditions need not be identical. Identical values can stand only once. Numbers after ± are expanded uncertainties.

Key:
[1] = 101 kPa, Liquid; for viscosity: Capillary tube (Ostwald / Ubbelohde) method; for mass density: Vibrating tube method
[2] = refractive index (Na D-line) (dimensionless); settings: 101.33 kPa, Liquid, Standard Abbe refractometry
[3] = xn = mol fraction of the nth substance listed; settings: 101 kPa, Liquid; for viscosity: Capillary tube (Ostwald / Ubbelohde) method; for mass density: Vibrating tube method
[4] = refractive index (Na D-line) (dimensionless); xn = mol fraction of the nth substance listed; settings: 101 kPa, Liquid, Standard Abbe refractometry

CC(C)O [propan-2-ol]
Settings | mass density, [1] [kg/m3] | refractive index, [2] | viscosity, [1] [mPa·s]
293.15 K | 785.19 ± 0.31 | 1.3766 ± 0.0021 | 2.351 ± 0.024
298.15 K | 780.98 ± 0.31 | 1.3745 ± 0.0021 | 2.044 ± 0.022
303.15 K | 776.71 ± 0.31 | 1.3724 ± 0.0021 | 1.758 ± 0.019
308.15 K | 772.36 ± 0.31 | 1.3703 ± 0.0021 | 1.532 ± 0.017

CC#N [acetonitrile] + CCCCCC(C)O
x1 = 1
Settings | mass density, [3] [kg/m3] | refractive index, [4] | viscosity, [3] [mPa·s]
293.15 K | 782.04 ± 0.31 | 1.3436 ± 0.0021 | 0.3542 ± 0.036
298.15 K | 776.64 ± 0.31 | 1.3411 ± 0.0021 | 0.3369 ± 0.034
303.15 K | 771.21 ± 0.31 | 1.339 ± 0.0021 | 0.3254 ± 0.033
308.15 K | 765.75 ± 0.31 | 1.3371 ± 0.0021 | 0.3082 ± 0.031

CCCCCC(C)O (stereo unspecified) [2-heptanol]
Settings | mass density, [1] [kg/m3] | refractive index, [2] | viscosity, [1] [mPa·s]
293.15 K | 817.18 ± 0.3 | 1.4206 ± 0.0021 | 6.52 ± 0.072
298.15 K | 813.33 ± 0.3 | 1.4188 ± 0.0021 | 5.33 ± 0.063
303.15 K | 809.44 ± 0.31 | 1.4165 ± 0.0021 | 4.301 ± 0.052
308.15 K | 805.5 ± 0.31 | 1.4143 ± 0.0021 | 3.528 ± 0.044

CCCC(C)O (stereo unspecified) [pentan-2-ol]
Settings | mass density, [1] [kg/m3] | refractive index, [2] | viscosity, [1] [mPa·s]
293.15 K | 809.29 ± 0.31 | 1.406 ± 0.0021 | 4.298 ± 0.05
298.15 K | 805.24 ± 0.34 | 1.4045 ± 0.0039 | 3.478 ± 0.059

CC#N [acetonitrile] + CCCCC(C)O
x1 = 1
Settings | mass density, [3] [kg/m3] | refractive index, [4] | viscosity, [3] [mPa·s]
293.15 K | 782.04 ± 0.31 | 1.3436 ± 0.0021 | 0.3542 ± 0.004
298.15 K | 776.64 ± 0.31 | 1.3411 ± 0.0021 | 0.336 ± 0.004
303.15 K | 771.21 ± 0.31 | 1.339 ± 0.0021 | 0.325 ± 0.004
308.15 K | 765.75 ± 0.31 | 1.3371 ± 0.0021 | 0.308 ± 0.004

CC#N [acetonitrile] + CCC(C)O
x1 = 1
Settings | mass density, [3] [kg/m3] | refractive index, [4] | viscosity, [3] [mPa·s]
293.15 K | 782.04 ± 0.31 | 1.3436 ± 0.0021 | 0.3542 ± 0.004
298.15 K | 776.64 ± 0.31 | 1.3411 ± 0.0021 | 0.3369 ± 0.0038
303.15 K | 771.21 ± 0.31 | 1.339 ± 0.0021 | 0.3254 ± 0.0037
308.15 K | 765.75 ± 0.31 | 1.3371 ± 0.0021 | 0.3082 ± 0.0036

CC(C)O [propan-2-ol] + CC#N
x2 = 0
Settings | mass density, [3] [kg/m3] | refractive index, [4] | viscosity, [3] [mPa·s]
293.15 K | 785.19 ± 0.31 | 1.3766 ± 0.0021 | 2.351 ± 0.024
298.15 K | 780.98 ± 0.31 | 1.3745 ± 0.0021 | 2.044 ± 0.022
303.15 K | 776.71 ± 0.31 | 1.3724 ± 0.0021 | 1.758 ± 0.019
308.15 K | 772.36 ± 0.31 | 1.3703 ± 0.0021 | 1.532 ± 0.017

CCC(C)O (stereo unspecified) [butan-2-ol]
Settings | mass density, [1] [kg/m3] | refractive index, [2] | viscosity, [1] [mPa·s]
293.15 K | 806.57 ± 0.31 | 1.3966 ± 0.0021 | 3.912 ± 0.046
298.15 K | 802.56 ± 0.31 | 1.3946 ± 0.0021 | 3.132 ± 0.039
303.15 K | 798.26 ± 0.31 | 1.3924 ± 0.0021 | 2.534 ± 0.029
308.15 K | 793.96 ± 0.31 | 1.3905 ± 0.0021 | 2.172 ± 0.024

CC#N [acetonitrile] + CCCC(C)O
x1 = 1
Settings | mass density, [3] [kg/m3] | refractive index, [4] | viscosity, [3] [mPa·s]
293.15 K | 782.04 ± 0.31 | 1.3436 ± 0.0021 | 0.3542 ± 0.071
298.15 K | 776.64 ± 0.31 | 1.3411 ± 0.0021 | 0.3369 ± 0.067
303.15 K | 771.21 ± 0.31 | 1.339 ± 0.0021 | 0.3254 ± 0.065
308.15 K | 765.75 ± 0.31 | 1.3371 ± 0.0021 | 0.3082 ± 0.062

CC#N [acetonitrile]
Settings | mass density, [1] [kg/m3] | refractive index, [2] | viscosity, [1]
293.15 K | 782.04 ± 0.31 | 1.3436 ± 0.0021 | 0.3542 ± 0.004 mPa·s
298.15 K | 776.64 ± 0.31 | 1.3411 ± 0.0021 | 0.3369 ± 0.0038 mPa·s and 0.336 ± 0.004 mPa·s
303.15 K | 771.21 ± 0.31 | 1.339 ± 0.0021 | 0.3254 ± 0.0037 mPa·s and 0.325 ± 0.004 mPa·s
308.15 K | 765.75 ± 0.31 | 1.3371 ± 0.0021 | 0.3082 ± 0.0036 mPa·s and 0.308 ± 0.004 mPa·s

CCCCC(C)O (stereo unspecified) [2-hexanol]
Settings | mass density, [1] [kg/m3] | refractive index, [2] | viscosity, [1] [mPa·s]
293.15 K | 814.08 ± 0.3 | 1.4135 ± 0.0021 | 5.155 ± 0.061
298.15 K | 810.14 ± 0.31 | 1.4116 ± 0.0021 | 4.1 ± 0.05
303.15 K | 806.13 ± 0.31 | 1.4093 ± 0.0021 | 3.41 ± 0.04
308.15 K | 802.06 ± 0.31 | 1.4077 ± 0.0021 | 2.819 ± 0.034
